Measured values as given in the CheMixHub drug solubility set.

Assay: xn = mol fraction of the nth substance listed, in the solute-free solvent

CC(C)C(=O)Nc1ccc([N+](=O)[O-])c(C(F)(F)F)c1 + CC(C)O + O
solubility (g/100 g solution)
Settings | 278.15 K | 283.15 K | 288.15 K | 293.15 K | 298.15 K | 303.15 K | 308.15 K | 313.15 K | 318.15 K | 323.15 K
x2 = 0.03225 | 0.00411 | 0.00535 | 0.00694 | 0.00908 | 0.0116 | 0.0149 | 0.0187 | 0.0236 | 0.0297 | 0.0366
x2 = 0.06974 | 0.0295 | 0.0376 | 0.0488 | 0.0614 | 0.0768 | 0.0971 | 0.121 | 0.15 | 0.185 | 0.226
x2 = 0.1139 | 0.145 | 0.182 | 0.228 | 0.279 | 0.342 | 0.415 | 0.505 | 0.598 | 0.707 | 0.853
x2 = 0.1666 | 0.533 | 0.638 | 0.775 | 0.929 | 1.12 | 1.32 | 1.54 | 1.82 | 2.11 | 2.46
x2 = 0.2307 | 1.53 | 1.83 | 2.16 | 2.51 | 2.97 | 3.45 | 3.99 | 4.54 | 5.22 | 5.9
x2 = 0.3103 | 3.62 | 4.25 | 5 | 5.84 | 6.78 | 7.81 | 9.03 | 10.4 | 11.7 | 13.3
x2 = 0.4117 | 6.94 | 8.23 | 9.52 | 11.1 | 12.8 | 14.6 | 16.6 | 18.9 | 21.3 | 23.8
x2 = 0.5454 | 11.6 | 13.6 | 15.6 | 17.6 | 20.1 | 22.3 | 25 | 28.1 | 30.8 | 33.6
x2 = 0.7297 | 16.9 | 19.1 | 21.6 | 24.2 | 27.3 | 30.4 | 33 | 36.1 | 39.4 | 42.8
